This passage reports IC50 results from ChEMBL document CHEMBL2424591 (Bioorg Med Chem, 2013).

As a reminder, the pIC50 is −log10 of the IC50, conventionally taken in molar units. A low value points to a large IC50.

SMILES strings stand for the structures. pIC50: −log10 of the molar value.

The assay addresses T1, Ribosyldihydronicotinamide dehydrogenase [quinone] (Homo sapiens, UniProt P16083).
T1 sequence (P16083 whole entry): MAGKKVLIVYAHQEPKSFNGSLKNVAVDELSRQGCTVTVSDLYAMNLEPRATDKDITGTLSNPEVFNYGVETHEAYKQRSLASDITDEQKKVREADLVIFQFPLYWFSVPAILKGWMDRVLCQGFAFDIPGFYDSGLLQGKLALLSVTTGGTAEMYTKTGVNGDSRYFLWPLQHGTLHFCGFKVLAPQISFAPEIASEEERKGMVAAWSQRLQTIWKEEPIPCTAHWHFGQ
Briefly: Inhibition of human quinone reductase 2 expressed in Escherichia coli BL21(DE3) using N-methyldihydronicotinamide as co-substrate.
Turning to `COc1cc(/C=C/c2ccc(F)cc2)cc(OC)c1`, the pIC50 was 5.34.

In the case of `COc1ccc(/C=C/c2ccc(O)c(O)c2)cc1`, the pIC50 is 5.03.

For the compound `COc1ccc(/C=C/c2ccc3ccccc3c2)cc1OC`, the negative-log IC50 (pIC50) is 5.26.

`COc1ccc(/C(C)=C/c2ccc(OC)c(OC)c2)cc1` had a pIC50 of 5.17.

On to `COc1cc(/C=C(\C)c2ccc(OC)c(OC)c2)cc(OC)c1`, for which the pIC50 was 5.00.

As to `N#C/C(=C\c1cc(O)cc(O)c1)c1ccc(O)cc1`, the pIC50 is 5.23.

The compound `OC/C(=C\c1cc(O)cc(O)c1)c1ccc(O)cc1` gave a pIC50 of 5.29.

Regarding `COc1ccc(/C(C=O)=C/c2cc(OC)cc(OC)c2)cc1`, the pIC50 is 4.62.

On to `NC(=O)/C(=C\c1cc(O)cc(O)c1)c1ccc(O)cc1`, for which the pIC50 was 5.03.

`O=C/C(=C/c1cc(O)cc(O)c1)c1ccc(O)cc1` had a pIC50 of 4.59.

`COc1ccc(/C(=C\c2cc(OC)cc(OC)c2)CO)cc1` gave a pIC50 of 4.56.

With `O=C(Nc1ccc(O)cc1)c1cc(O)cc(O)c1`, the pIC50 was 4.56.

Consider `O=C(Nc1cc(O)cc(O)c1)c1ccc(O)cc1`, for which the negative-log IC50 (pIC50) is 4.77.

In turn, `Oc1ccc(/C=C/c2ccc(O)c(O)c2)cc1` showed a pIC50 of 5.22.

Regarding `Oc1ccc(/C=C/c2cccc(F)c2)cc1O`, the pIC50 was 4.68.

Take `CC/C(=C\c1ccc(N(C)C)cc1)c1cc(O)cc(O)c1`: the pIC50 was 4.96.

The compound `CC/C(=C\c1cc(OC)cc(OC)c1)c1ccc(OC)c(OC)c1` gave a pIC50 of 4.79.

Regarding `COc1cc(/C=C/c2ccc3ccccc3c2)cc(OC)c1`, the negative-log IC50 (pIC50) is 6.14.

Compound `COc1cccc(/C=C/c2ccc(OC)c(OC)c2)c1` showed a pIC50 of 5.17. Against the preceding compound, the pIC50 is 0.97 log units lower.

`COc1ccc(/C=C/c2ccc(N(C)C)cc2)cc1OC`: the pIC50 was 4.89.

In turn, `C/C(=C\c1cc(O)cc(O)c1)c1ccc(O)cc1` showed a pIC50 of 4.41.

The compound `Oc1ccc(/C=C/c2ccc(C(F)(F)F)cc2)cc1O` showed a negative-log IC50 (pIC50) above 4.85.

Compound `COc1ccc(/C=C(/c2cc(OC)cc(OC)c2)C(F)(F)F)cc1` had a pIC50 of 4.89.

On to `COc1ccc(/C(C)=C/c2cc(O)cc(O)c2)cc1`, for which the pIC50 is 4.92.

Compound `COc1ccc(/C(C)=C/c2cc(OC)cc(OC)c2)cc1` showed a pIC50 of 4.70.

The compound `COc1ccc(/C(C)=C/c2cc(O)cc(O)c2)cc1OC` had a pIC50 of 4.47.

On to `COc1ccc(/C=C(/c2cccc(C(F)(F)F)c2)C(F)(F)F)cc1OC`, for which the pIC50 was 6.74.

`C/C(=C\c1ccc(C(F)(F)F)cc1)c1ccc(O)cc1` had a pIC50 of 5.55.

`C/C(=C\c1ccc(O)cc1)c1cc(O)cc(O)c1` gave a pIC50 of 5.32.

`COc1ccc(/C(C#N)=C/c2cc(OC)cc(OC)c2)cc1` had a negative logarithm of the IC50 (pIC50) of 4.50.

In the case of `COc1cc(/C=C/c2ccc(OC)c(OC)c2)cc(OC)c1` [(E)-3,4,3',5'-TETRAMETHOXYSTILBENE], the pIC50 was 4.43.

`COc1cc(/C=C/c2ccc(O)cc2)cc(OC)c1` [PTEROSTILBENE]: the pIC50 was 5.29.

Compound `COc1ccc(/C=C/c2cc(OC)cc(OC)c2)cc1` [TRISMETHOXYRESVERATROL] had a pIC50 of 4.84.
